Our source for the TGI and GI50 values is PubChem BioAssay (NCI).

Where “and” joins values, the source holds several entries; their conditions need not be identical. Equal values may be shown once.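 Cultured in 96-well plates, cells were exposed to test compound for 48 hours across five concentrations. GI50 = concentration required for 50% inhibition of growth. TGI denotes the concentration required for complete inhibition of growth.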

Holding throughout (assay): NCI tumour cell line growth inhibition, 48 h
The subject of assay [1] is ACHN renal.
Assay [2] concerns BT-549 breast.
The subject of assay [3] is DU-145 prostate.
Assay [4] concerns EKVX NSCLC.
Assay [5] concerns HCT-15 colon.
Assay [6] has as its system HS 578T breast.
Assay [7] relates to MDA-MB-435.
Assay [8] deals with MDA-N.
In assay [9] the test system is PC-3 prostate.
Assay [10] has as its system RPMI-8226 leukemia.
The subject of assay [11] is RXF 393 renal.
Assay [12] relates to T-47D breast.
In assay [13] the test system is OVCAR-4 ovarian.
In assay [14] the test system is P388 leukemia.
Assay [15] concerns SF-539 CNS.
Assay [16] concerns SNB-78 CNS.
Assay [17] deals with XF 498 CNS.
In assay [18] the test system is DMS 273 small cell lung.
The test system of assay [19] is LXFL 529 NSCLC.

As for `C[C@H]1SC(c2ccc(Cl)cc2Cl)N(NC(=O)c2ccncc2)C1=O` (stereo not given in full), the TGI in assay [1] was 90.7 µM; in assay [2], above 100 µM; in [3], above 100 µM; in assay [4] it was 98.8 µM; in assay [5], above 100 µM; in [6] it was above 100 µM. Moreover, the TGI in assay [7] is 75.3 µM; in [8], 57.5 µM; in [9] it was 29.7 µM; in assay [10], above 100 µM; in assay [11] it was 61.2 µM; in [12] it was above 100 µM.

As for `CN(C)CCNC(=O)c1cccc2nc(-c3ccccc3)oc12`, the TGI in [4] was above 55.8 µM; in [5] it was above 100 µM; in assay [13], above 100 µM; in [14], 20.3 µM; in assay [10], above 100 µM; in assay [11], above 100 µM. Also, the values for the TGI in assay [15], in assay [16] and in assay [17] were above 100 µM, above 100 µM and above 91.9 µM, respectively.

For `CCOC(=O)/C(O)=C1\C(=O)N(C)C(=O)C1c1cccc(OC)c1` (stereo not given), the TGI in assay [18], in [4], in assay [5], in [13], in assay [14] and in [10] was above 100 µM in each case. Besides, the TGI in [11], in [15], in [16] and in assay [17] was above 100 µM each time.

On to `CC(=O)OCc1c(O)c2c(c(O)c1COC(C)=O)C(=O)C=CC2=O`, for which the TGI came to 21.8 µM in [1]; 34.3 µM in assay [18]; 32 µM in [4]; 38.1 µM in [5]; 10.4 µM in assay [19]; 22.7 µM in assay [13]. Moreover, the TGI in [10] is above 100 µM; in [15], 35.7 µM; in assay [16], 28 µM.

`CCCSc1nc(-c2ccc(OC)cc2)c(C#N)c(=O)n1C1OC(COC(C)=O)C(OC(C)=O)C(OC(C)=O)C1OC(C)=O` (stereo not given): the TGI in assay [1] is above 100 µM; in assay [19], above 100 µM; in assay [13] it was above 100 µM; in [10] it was above 100 µM; in [11], > 100 µM and 61.2 µM; in [15], above 100 µM. This molecule registered a TGI in assay [16] above 100 µM. The GI50 in assay [11] was > 100 µM and 17.2 µM.

For `O=c1cc(-c2cc(O)c(O)c(-c3c(O)cc4oc(-c5ccc(O)c(O)c5)cc(=O)c4c3O)c2)oc2cc(O)cc(O)c12`, the TGI in assay [2], in [3], in [4], in assay [5], in assay [6] and in assay [7] was above 25 µM throughout. The TGI in assay [8], in [13], in [9], in assay [11], in [15] and in assay [12] was above 25 µM throughout.
